In article PMC7614784, “Structure and function of the RAD51B-RAD51C-RAD51D-XRCC2 tumour suppressor” (Nature, 2023):

Tests used:
[1] = molecular target: T1, BCDX2 (RAD51B-RAD51C-RAD51D-XRCC2) (Homo sapiens, UniProt O15315+O43502+O43543+O75771, O15315:K114A, form not given); assay: HPLC of nucleotides extracted from purified complex; format: binding; conditions: RAD51B Walker A mutant; nucleotide co-purified with the complex; 2.5 mM Mg2+, pH 7.5
T1 construct: four-subunit complex co-expressed in Sf9 cells; N-terminal TwinStrep-TEV tag on XRCC2 removed by TEV protease
T1 sequence (O15315 1-345 K114A, form open): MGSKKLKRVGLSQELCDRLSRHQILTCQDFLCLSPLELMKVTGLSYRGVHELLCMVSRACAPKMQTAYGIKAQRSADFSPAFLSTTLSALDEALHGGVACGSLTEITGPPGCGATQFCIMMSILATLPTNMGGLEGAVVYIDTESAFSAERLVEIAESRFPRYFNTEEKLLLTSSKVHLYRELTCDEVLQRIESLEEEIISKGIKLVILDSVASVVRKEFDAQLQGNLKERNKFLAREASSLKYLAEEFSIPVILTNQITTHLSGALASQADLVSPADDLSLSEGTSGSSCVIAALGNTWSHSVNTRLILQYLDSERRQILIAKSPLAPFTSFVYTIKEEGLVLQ
T1 sequence (O43502 whole entry, form open): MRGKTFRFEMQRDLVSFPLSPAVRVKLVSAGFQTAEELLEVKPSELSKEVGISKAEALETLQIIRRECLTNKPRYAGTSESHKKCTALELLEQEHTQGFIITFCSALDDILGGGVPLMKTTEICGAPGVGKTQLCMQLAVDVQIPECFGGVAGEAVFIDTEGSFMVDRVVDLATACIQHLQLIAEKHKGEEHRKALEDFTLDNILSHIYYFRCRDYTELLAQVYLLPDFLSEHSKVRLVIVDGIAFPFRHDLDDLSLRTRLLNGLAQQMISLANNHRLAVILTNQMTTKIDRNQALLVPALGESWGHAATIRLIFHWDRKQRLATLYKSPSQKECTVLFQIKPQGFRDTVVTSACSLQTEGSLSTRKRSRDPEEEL
T1 sequence (O75771 whole entry, form open): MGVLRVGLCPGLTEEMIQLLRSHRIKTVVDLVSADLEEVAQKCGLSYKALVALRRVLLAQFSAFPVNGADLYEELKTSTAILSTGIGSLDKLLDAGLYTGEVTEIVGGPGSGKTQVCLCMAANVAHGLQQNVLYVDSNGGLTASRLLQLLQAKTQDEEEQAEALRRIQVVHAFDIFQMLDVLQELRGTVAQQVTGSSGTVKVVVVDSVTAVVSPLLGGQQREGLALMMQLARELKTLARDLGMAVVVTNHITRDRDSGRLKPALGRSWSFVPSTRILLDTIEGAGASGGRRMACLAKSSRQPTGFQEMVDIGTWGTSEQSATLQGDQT
T1 sequence (O43543 whole entry, form open): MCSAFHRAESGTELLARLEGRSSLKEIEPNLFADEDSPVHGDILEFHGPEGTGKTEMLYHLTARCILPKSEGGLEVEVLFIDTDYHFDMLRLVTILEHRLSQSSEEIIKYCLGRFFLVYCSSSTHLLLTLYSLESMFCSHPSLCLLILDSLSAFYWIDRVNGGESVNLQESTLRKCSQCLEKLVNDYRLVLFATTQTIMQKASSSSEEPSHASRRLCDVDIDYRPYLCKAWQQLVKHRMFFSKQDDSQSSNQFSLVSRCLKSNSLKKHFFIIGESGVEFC

[2] = molecular target: T2, BCDX2 (RAD51B-RAD51C-RAD51D-XRCC2) (Homo sapiens, UniProt O15315+O43502+O43543+O75771); assay: cryo-EM structure ([…] Å and […] Å); format: binding; conditions: Mg2+, sample vitrified with ADP.AlFx or ADP.BeFx
T2 construct: four-subunit complex co-expressed in Sf9 cells; N-terminal TwinStrep-TEV tag on XRCC2 removed by TEV protease
T2 sequence (O15315 1-345): as the sequence (O15315 1-345 K114A, form open) above, with A114K counted along it
T2 sequence (O43502 whole entry): as the sequence (O43502 whole entry, form open) above
T2 sequence (O75771 whole entry): as the sequence (O75771 whole entry, form open) above
T2 sequence (O43543 whole entry): as the sequence (O43543 whole entry, form open) above

[3] = molecular target: T2, BCDX2 (RAD51B-RAD51C-RAD51D-XRCC2); assay: HPLC of nucleotides extracted from purified complex; format: binding; conditions: nucleotide co-purified with the complex; 2.5 mM Mg2+, pH 7.5; sites: RAD51B and RAD51C
[4] = molecular target: T3, BCDX2 (RAD51B-RAD51C-RAD51D-XRCC2) (Homo sapiens, UniProt O15315+O43502+O43543+O75771, O15315:E144A, form not given); assay: ATPase assay, alpha-32P-ATP, TLC; format: biochemical; conditions: RAD51B catalytic glutamate mutant; 15 µM ATP, 1 µM complex, 2.5 mM Mg2+, pH 7.5, 37 °C
T3 construct: four-subunit complex co-expressed in Sf9 cells; N-terminal TwinStrep-TEV tag on XRCC2 removed by TEV protease
T3 sequence (O15315 1-345 E144A, form open): as the sequence (O15315 1-345 K114A, form open) above, with A114K, E144A counted along it
T3 sequence (O43502 whole entry, form open): as the sequence (O43502 whole entry, form open) above
T3 sequence (O75771 whole entry, form open): as the sequence (O75771 whole entry, form open) above
T3 sequence (O43543 whole entry, form open): as the sequence (O43543 whole entry, form open) above

[5] = molecular target: T1, BCDX2 (RAD51B-RAD51C-RAD51D-XRCC2); assay: HPLC of nucleotides extracted from purified complex; format: binding; conditions: RAD51B Walker A mutant; nucleotide co-purified with the complex; 2.5 mM Mg2+, pH 7.5; remark: listed apart in the source
[6] = molecular target: T4, BCDX2 (RAD51B-RAD51C-RAD51D-XRCC2) (Homo sapiens, UniProt O15315+O43502+O43543+O75771, O15315:E144A/O43502:E161A, form not given); assay: as above; format: binding; conditions: RAD51B and RAD51C catalytic glutamate double mutant; 2.5 mM Mg2+, pH 7.5
T4 construct: four-subunit complex co-expressed in Sf9 cells; N-terminal TwinStrep-TEV tag on XRCC2 removed by TEV protease
T4 sequence (O15315 1-345 E144A, form open): as the sequence (O15315 1-345 K114A, form open) above, with A114K, E144A counted along it
T4 sequence (O43502 whole entry E161A, form open): as the sequence (O43502 whole entry, form open) above, with E161A counted along it
T4 sequence (O75771 whole entry, form open): as the sequence (O75771 whole entry, form open) above
T4 sequence (O43543 whole entry, form open): as the sequence (O43543 whole entry, form open) above

[7] = molecular target: T2, BCDX2 (RAD51B-RAD51C-RAD51D-XRCC2); assay: as above; format: binding; conditions: nucleotide co-purified with the complex; 2.5 mM Mg2+, pH 7.5
[8] = molecular target: T5, BCDX2 (RAD51B-RAD51C-RAD51D-XRCC2) (Homo sapiens, UniProt O15315+O43502+O43543+O75771, O43502:E161A, form not given); assay: as above; format: binding; conditions: RAD51C catalytic glutamate mutant; 2.5 mM Mg2+, pH 7.5
T5 construct: four-subunit complex co-expressed in Sf9 cells; N-terminal TwinStrep-TEV tag on XRCC2 removed by TEV protease
T5 sequence (O15315 1-345, form open): as the sequence (O15315 1-345 K114A, form open) above, with A114K counted along it
T5 sequence (O43502 whole entry E161A, form open): as the sequence (O43502 whole entry, form open) above, with E161A counted along it
T5 sequence (O75771 whole entry, form open): as the sequence (O75771 whole entry, form open) above
T5 sequence (O43543 whole entry, form open): as the sequence (O43543 whole entry, form open) above

SMILES	nt of ADP bound per complex [1] [nt per complex]	cryo-EM structure (2.2 Å and 3.4 Å) ([2]; site: RAD51C nucleotide site)	nt of ADP bound per complex [3] [nt per complex]	% reduction of ATPase activity relative to wild-type [4]	nt of ATP bound per complex [5] [nt per complex]	HPLC of nucleotides extracted from purified complex [6]	nt of ATP bound per complex [7] [nt per complex]	cryo-EM structure (2.2 Å and 3.4 Å) ([2]; sites: RAD51D and XRCC2 nucleotide sites, co-purified nucleotide)	HPLC of nucleotides extracted from purified complex [8]
Nc1ncnc2c1ncn2[C@@H]1O[C@H](COP(=O)(O)OP(=O)(O)O)[C@@H](O)[C@H]1O [ADP]	1.2 ± 0.1	RAD51D and XRCC2 bound ATP whereas RAD51C bound ADP	1.9 ± 0.1						
Nc1ncnc2c1ncn2[C@@H]1O[C@H](COP(=O)(O)OP(=O)(O)OP(=O)(O)O)[C@@H](O)[C@H]1O [ATP]				~ 50%	1.8 ± 0.1	all nucleotide binding sites were fully occupied with ATP	2.1 ± 0.2	RAD51D and XRCC2 bound ATP whereas RAD51C bound ADP	all nucleotide binding sites were fully occupied with ATP
